How the values were obtained:
[1] = solubility of amorphous torsemide compared with crystalline forms; format: physicochemical; conditions: isolated amorphous torsemide vs crystalline forms incl. those of U.S. 5,914,336, Re. 34,672 and WO 00/20395
[2] = stability of the crystal form in an ethanol slurry; format: physicochemical
Procedure: (§1) In another embodiment of the present invention, torsemide modification I may be made from torsemide modification II by reslurry in ethanol. By the process of the present invention, torsemide modification II is stirred at room temperature in ethanol for a time sufficient to induce the transformation of torsemide modification II to torsemide modification I. Preferably the mixture is stirred for 2 hours. Torsemide modification I is isolated upon filtering the mixture followed by drying under high vacuum at a temperature of about 40° C. to about 60° C. for a sufficient time to complete drying. Drying is complete upon reaching constant weight. It has been observed that torsemide modification I is stable in an ethanol slurry for at least 65 hours.
as §1, with “dimethyl formamide (DMF).” for “ethanol.”, “methods” for “process”, “DMF” for “ethanol”, “I.” for “I. Preferably the mixture is stirred for 2 hours.”, “It has been observed that torsemide modification I is stable in an ethanol slurry for at least 65 hours.” left out

Row | Compound | solubility relative to crystalline forms of torsemide [1] | time stable in an ethanol slurry [2]
1 | Cc1cccc(Nc2ccncc2S(=O)(=O)NC(=O)NC(C)C)c1 [amorphous torsemide, 1-Isopropyl-3-[(4-m-toluidino-3-pyridyl)sulfonyl] urea] | more soluble than crystalline forms of torsemide | –
2 | Cc1cccc(Nc2ccncc2S(=O)(=O)NC(=O)NC(C)C)c1 [torsemide modification I, 1-Isopropyl-3-[(4-m-toluidino-3-pyridyl)sulfonyl] urea] | – | at least 65 hours

— US20070260068A1, “Method for the Preparation of Crystal Forms of Torsemide in a Pure State” (priority 2004, published 2007)
